Tests used:
[1] = tested on: peroxidase; conditions: results obtained by Fujirebio, U.S. Pat. No. 5,171,668; cited from earlier work
[2] = tested on: horseradish peroxidase (HRP-Type VIIA); test: pH dependence of the enhanced luminol-peroxide-peroxidase chemiluminescent reaction (Example 5); assay type: biochemical; conditions: 5.0 mM luminol, 4.00 mM perborate, 1.50 mM enhancer; all pH values
Method: All measurements reported in Example 5 were carried out with a fluorimeter (Varian Eclipse), Bio/Chemiluminescence Mode (wavelength of emission: 425 nm; emission slit: 10 nm; emission filter: open; photomultiplier voltage: medium). A series of substrates in 0.125 M, pH 9.1 Tris Buffer is prepared, with the following composition: • [luminol sodium salt]=5.0 mM. • [sodium perborate]=4.00 mM • 3-(phenothiazin-10-yl)propane-1-sulfonate=1.50 mM
A series of polymethylmethacrylate fluorimetry cuvettes is prepared, each containing of containing 2 mL of substrate. To each cuvette is added a small amount of 5M or 12M HCl, in order to adjust the pH to the following values: 9.02, 8.76, 8.51, 8.41, 8.28, 8.14 and 7.95, and limiting changes in the total volume to less than 5%. Then to each cuvette are added 10 μL of a 0.5 μg/mL solution of horseradish peroxidase (HRP-Type VIIA). After mixing the solution with a vortex for a few seconds, measurement of the luminescent signal is initiated. […] From the results obtained, which are shown in FIG. 3, it is evident that the chemiluminescent signal reaches the maximum value in the range between pH 8.3 and pH 8.6.

[3] = tested on: horseradish peroxidase (HRP-Type VIIA); test: enhanced luminol-peroxide-peroxidase chemiluminescent reaction, dependence on luminol concentration (Example 4); assay type: biochemical
Method: All measurements reported in Example 4 were carried out with a spectrofluorimeter (Varian Eclipse), Bio/Chemiluminescence Mode (wavelength of emission: 425 nm; emission slit: 20 nm). A series of substrates in 0.1 M, pH 8.6 Tris Buffer is prepared, with the following compositions: • [luminol sodium salt]=0.625 mM, 1.25 mM, 2.50 mM, 5.0 mM, 10 mM. • [sodium perborate]=2.00 mM • 3-(phenothiazin-10-yl)propane-1-sulfonate=0.75 mM
(§1) To a polymethylmethacrylate fluorimetry cuvette of containing 2 mL of each substrate, is added 10 μL of a solution of 0.5 μg/mL of horseradish peroxidase (HRP-Type VIIA). After mixing the solution with a vortex for a few seconds, measurement of the luminescent signal is initiated. […] The dependence of the chemiluminescent signal (plateau value) for each substrate, is reported graphically in FIG. 2. The luminescent signal gradually grows very rapidly with increasing concentration of the luminol, until it reaches a maximum value between 0.5 and 1 mM. Further raising the concentration of the enhancer, the chemiluminescent signal begins to decline slowly. At the highest concentration of enhancer, 3.0 mM, the signal is approximately 70% of the maximum value. The luminescent signal grows gradually, and reaches a plateau at the highest concentration of luminol used in the experiment, 10 mM.

[4] = tested on: horseradish peroxidase (HRP-Type VIIA); test: luminol-peroxide-peroxidase chemiluminescent reaction, dependence on enhancer concentration (Example 3); assay type: biochemical; conditions: 2.50 mM luminol, 2.00 mM perborate, pH 8.6
Method: All measurements reported in Example 3 were carried out with a spectrofluorimeter (Varian Eclipse), Bio/Chemiluminescence Mode (wavelength of emission: 425 nm; emission slit: 20 nm). A series of substrates in 0.1 M, pH 8.6 Tris Buffer is prepared, with the following compositions: • [luminol sodium salt]=2.50 mM • [sodium perborate]=2.00 mM • 3-(phenothiazin-10-yl)propane-1-sulfonate=11.5 μM, 23 μM, 47 μM, 94 μM, 188 μM, 375 μM, 1500 μM e 3000 μM.
as §1, with “1.” for “2.”, “signal” for “signal gradually”, “enhancer, 3-(phenothiazin-10-yl)propane-1-sulfonate,” for “luminol,”, “value.” for “value. The luminescent signal grows gradually, and reaches a plateau at the highest concentration of luminol used in the experiment, 10 mM.”

[5] = tested on: peroxidase enzyme; conditions: phenothiazine present as impurity in the enhancer; according to U.S. Pat. No. 6,432,662; cited from earlier work

Row | Compound | enhancement of luminol chemiluminescence compared with standard enhancer 4-iodophenol [1] | time course of the chemiluminescent signal [2] | time course of the chemiluminescent signal ([3]; 0.75 mM enhancer, 2.00 mM perborate, luminol 0.625-10 mM, pH 8.6) | luminol concentration at which the luminescent signal reaches a plateau ([3]; 0.75 mM enhancer, 2.00 mM perborate, pH 8.6, highest luminol concentration used) [mM] | chemiluminescent signal relative to the maximum value ([3]; as printed in Example 4: highest concentration of enhancer, 3.0 mM) | time course of the chemiluminescent signal ([4]; all enhancer concentrations) | chemiluminescent signal relative to the maximum value ([4]; highest concentration of enhancer, 3.0 mM) | effect on the peroxidase enzyme [5]
1 | O=S(=O)([O-])CCCN1c2ccccc2Sc2ccccc21.[Na+] [sodium 3-(phenothiazin-10-yl)propane-1-sulfonate] | not significantly better than those observed with a standard enhancer such as 4-iodophenol | reaches a constant value within a few seconds | reaches a plateau within a few minutes, and then remains stable for at least thirty minutes | 10 | approximately 70% | reaches a plateau within a few minutes, and then remains stable for at least thirty minutes | approximately 70% | 
2 | c1ccc2c(c1)Nc1ccccc1S2 [phenothiazine] |  |  |  |  |  |  |  | deactivates the peroxidase enzyme
